The record followed here is patent publication US20220110953A1, “METHODS AND COMPOSITIONS FOR TREATING HUMAN PAPILLOMAVIRUS (HPV)-INDUCED CANCERS” (The Board of Regents of the University of Oklahoma, priority 2020, published 2022).

Data set [1] deals with HPV 16+ and HPV 18+ human cervical cancer cell lines. Kind of data set: Auranofin cell growth in human cervical cancer cell lines. The data set is classed as cell-based. To be noted: FIG. 6.
The nature of data set [2]: Body weight and gross toxicity in the SiHa xenograft study. It is filed as in vivo, mice. To be noted: 10 mg/kg/day i.p., 16 days. The method, then:
(§1) The animal study was conducted in accordance with a standard animal protocol approved by the University of Oklahoma Health Sciences Center Institutional Animal Care and Use Committee (IACUC Protocol #19-009-CHI). […] Auranofin (10 mg/kg/day) or placebo (2% DMSO, 10% ethanol and 5% polyethylene glycol 400) were given daily for 16 days, through intraperitoneal injection. Mice were weighed once per week and animal health was monitored daily. At the end of the study, all mice were euthanized by CO2 inhalation followed by cardiac puncture and total blood collection. Tumors were collected at necropsy and a portion of each tumor from each animal was fixed in paraformaldehyde and embedded in paraffin, while another portion was snap-frozen in liquid nitrogen.
(§2) The tumor volume and body weight data were determined to be not normally distributed, and the final tumor weight data was determined to be normally distributed using the Shapiro-Wilk test. Tumor volume and body weight were compared between treatment groups using the Wilcoxon matched-pairs signed rank test. A two-way ANOVA with multiple comparisons was used to evaluate the interaction between time and treatment. An unpaired t-test was used to compare the final tumor weights between the two treatment groups. The p values <0.05 were considered statistically significant. Statistical analysis was performed using Prism 8.0 (GraphPad).

Data set [3] has as its system SiHa cervical cancer xenografts (HPV 16+). Kind of data set: SiHa tumor xenograft model. The data set is classed as in vivo, mice. Particulars: 10 mg/kg/day i.p., vs placebo. The method, then: as §1, §2
Another data set has as its system HPV 18 E6. Kind of data set: Western blot for phosphorylated E6 in HeLa cells treated with IKKβ inhibitor. The data set is classed as cell-based, human. The method, then:
HPV-18-positive HeLa cells were seeded on 6 cm dishes and allowed to attach overnight. Fresh medium was then added, containing either 0, 100 nM or 500 nM […] inhibitor (in DMSO). After 5 hours the cells were harvested in 2×SDS-PAGE gel loading buffer, run on SDS-PAGE, and analyzed by Western Blot. The membrane was probed with antibody specific for phosphorylated E6, as described previously (Boon and Banks 2012, DOI: 10.1128/JVI.02074-12). Following incubation with primary antibody, the appropriate horseradish peroxidase (HRP)-conjugated secondary antibodies (Dako) were used, followed by enhanced chemiluminescence (ECL) detection according to the manufacturer's instructions.
To assess whether phosphorylation-mediated regulation of E6 plays a role in suppression of Magi degradation, we treated cells expressing HPV 18 E6 with the IKKβ inhibitor […] (at 100 and 500 nM) and compared with untreated cells for E6 phosphorylation. Western blot analysis was performed using an antibody to detect phosphorylated E6.
For orientation: Immunoblotting shows a protein as a band on a membrane.

For the next data set, the system named is SiHa (HPV 16+) cells. The data set can be described thus: Effect of IMD 0354 on growth of SiHa cells (cell count after 48h). The data set is classed as cell-based, human. To be noted: 250-1250 nM. The method, then:
(§3) To examine the effect of IMD 0354 on the growth of HaCat (HPV^−), HeLa (HPV 18^+), CasKi and SiHa (both HPV 16^+), the cells were plated out and allowed to adhere overnight. Next day their culture medium was replaced and different concentrations of IMD 0354 (final concentrations 250, 500, 750, 1000, 1250 nM, using DMSO to equalize input volumes and as negative control) were added to the plates. Cells were counted 48h later.
(§4) IKKβ is a serine/threonine kinase that is highly conserved between flies and humans. It regulates the innate immune pathway by activating NF-κB, which in turn activates the expression of antimicrobial peptides to fight against pathogens. To determine whether IKKβ also has a functional link to E6+UBE3A in human cells, we assessed the effect of the commercial IKKβ inhibitor IMD 0354 on the growth of HaCat (HPV^−), HeLa (HPV 18^+), CasKi (HPV 16^+), and SiHa (HPV 16^+) cells. Different concentrations of the inhibitor were tested ranging from 250, 500, 750, 1000, to 1250 nM.

The test system of a further data set is HaCat (HPV−) cells. The data set can be described thus: Effect of IMD 0354 on growth of HaCat cells (cell count after 48h). It is filed as cell-based, human. Particulars: 250-1250 nM. The method, then: as §3, §4
The subject of the next data set is HeLa (HPV 18+) cells. The data set can be described thus: Effect of IMD 0354 on growth of HeLa cells (cell count after 48h). It is filed as cell-based, human. The method, then: as §3, §4

`CC(=O)OC[C@H]1O[C@@H]([S-])[C@H](OC(C)=O)[C@@H](OC(C)=O)[C@@H]1OC(C)=O.CCP(CC)CC.[Au+]` [Auranofin]: the “activity against cervical cancer cell lines (cell growth)” value in data set [1] is listed as “active”. Also, in data set [2], the “gross toxicity to the animals” value was “did not cause gross toxicity”. Moreover, the body weights entry in data set [2] (vs placebo, any time point, p>0.05) is on record as “no significant differences”. In data set [3] (16 days, Wilcoxon p=0.0011), the “tumor growth (tumor volume over time)” value is on record as “significant reduction in tumor growth”. Also, the “tumor volume after 16 days of treatment” value in data set [3] (two-way ANOVA multiple comparisons p=0.0016) was “significant reduction in tumor volume”.
`O=C(Nc1cc(C(F)(F)F)cc(C(F)(F)F)c1)c1cc(Cl)ccc1O` [IMD 0354]: the “E6 phosphorylation (Western blot)” value in the data set with HPV 18 E6 (HeLa cell extracts, 100 nM, 5 hours) was “lack of E6 phosphorylation”; with HPV 18 E6 (HeLa cell extracts, 500 nM, 5 hours), “results in phosphorylation of E6”; in the data set on HPV 18 E6 (cells expressing HPV 18 E6, at 100 and 500 nM, compared with untreated cells) it was “extensive phosphorylation of E6”. In addition, the “effect on cell growth” value in the data set with SiHa (HPV 16+) cells was “significant”; in the data set on HaCat (HPV−) cells, “minor effect”; in the data set with HeLa (HPV 18+) cells (250-1250 nM), “most strongly affected”. In addition, the “number of surviving cells relative to the initial number of cells” value came out at 40% in the data set with HeLa (HPV 18+) cells (250 nM) and 10% in the data set on HeLa (HPV 18+) cells (1250 nM).
